Active and inactive are the calls of the source.
Key:
[1] = Luminescence Cell-Based Dose Confirmation HTS to Identify Activators of 5'UTR Stem-Loop Driven Alpha-Synuclein mRNA Translation in H4 Neuroglioblastoma Cells. [Related pubchem assays: 1829 (Project Summary), 1814 (Primary HTS)]; format: functional
[2] = molecular target: T1, Oxysterols receptor LXR-beta (Homo sapiens, UniProt P55055); format: functional, cell-based
T1 sequence (P55055 whole entry): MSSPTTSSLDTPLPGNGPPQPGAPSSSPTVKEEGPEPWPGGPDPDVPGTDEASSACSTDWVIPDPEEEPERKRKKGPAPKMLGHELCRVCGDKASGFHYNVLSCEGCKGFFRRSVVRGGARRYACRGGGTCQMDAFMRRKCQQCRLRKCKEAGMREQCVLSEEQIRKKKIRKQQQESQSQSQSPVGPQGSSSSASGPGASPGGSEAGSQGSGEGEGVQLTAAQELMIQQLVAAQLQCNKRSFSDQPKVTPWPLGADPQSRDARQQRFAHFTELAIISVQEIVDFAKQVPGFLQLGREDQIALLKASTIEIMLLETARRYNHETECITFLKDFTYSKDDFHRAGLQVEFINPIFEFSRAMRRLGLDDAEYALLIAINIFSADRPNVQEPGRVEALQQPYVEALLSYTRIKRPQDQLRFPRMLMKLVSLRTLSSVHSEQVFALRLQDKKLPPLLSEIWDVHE

H4 = assay: Luminescence Cell-Based Dose Response HTS to Identify Activators of 5'UTR Stem-Loop Driven Prion Protein mRNA Translation in H4 Neuroglioblastoma Cells. [Related pubchem assays: 1829 (Project Summary), 1814 (Primary HTS)]; format: functional; settings: Homo sapiens
[3] = Luminescence Cell-Based Dose Response HTS to Identify Activators of Luciferase Translation or Activity in H4 […] Cells. [Related pubchem assays: 1829 (Project Summary), 1814 (Primary HTS)]; format: functional
Protein skinhead-1 = molecular target: T2, Protein skinhead-1 (Caenorhabditis elegans, UniProt P34707); format: functional
T2 sequence (P34707 whole entry): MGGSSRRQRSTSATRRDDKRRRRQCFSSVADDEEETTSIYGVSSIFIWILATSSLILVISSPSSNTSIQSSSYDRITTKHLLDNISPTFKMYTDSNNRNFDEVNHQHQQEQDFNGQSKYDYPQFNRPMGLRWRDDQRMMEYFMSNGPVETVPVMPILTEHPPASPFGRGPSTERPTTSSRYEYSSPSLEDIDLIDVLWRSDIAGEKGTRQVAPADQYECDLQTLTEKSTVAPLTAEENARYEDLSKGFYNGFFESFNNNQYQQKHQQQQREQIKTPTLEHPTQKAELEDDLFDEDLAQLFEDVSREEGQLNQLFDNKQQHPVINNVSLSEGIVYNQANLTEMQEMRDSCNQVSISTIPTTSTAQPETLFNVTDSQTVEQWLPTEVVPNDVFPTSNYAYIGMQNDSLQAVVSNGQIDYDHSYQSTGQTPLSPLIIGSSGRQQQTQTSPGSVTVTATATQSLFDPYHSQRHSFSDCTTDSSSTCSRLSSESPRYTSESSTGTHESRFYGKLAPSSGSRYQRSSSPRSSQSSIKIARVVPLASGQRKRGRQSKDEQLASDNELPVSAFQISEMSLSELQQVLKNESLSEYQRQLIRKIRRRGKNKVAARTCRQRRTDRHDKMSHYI

[4] = molecular target: T1, Oxysterols receptor LXR-beta; format: functional, cell-based; remark: listed apart in the source
[5] = molecular target: Disintegrin and metalloproteinase domain-containing protein 17 (Homo sapiens, UniProt P78536); assay: exosite inhibitors of ADAM17, dose response, biochemical (AID 743260)
[6] = ADAM10 protease inhibitors, dose response, selectivity assay for ADAM17 exosite inhibitor project, biochemical, FRET peptide substrate, recombinant human ADAM10 (AID 743259);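 also: ADAM10 enzyme cleaving a FRET peptide substrate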
[7] = cytotoxicity dependent on PAX8, dose response, cell-based, plate reader, dry powder (AID 743049); format: functional
Paired box protein Pax-8 = Paired box protein Pax-8 (Homo sapiens, UniProt Q06710); assay: inhibitors of PAX8-driven TPO luciferase reporter, dose response, RMG-I cells, cherry-pick (AID 687027); format: functional, cell-based;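 also: luciferase reporter driven by Pax8 target thyroperoxidase promoter measured by SteadyGlo luminescence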
[8] = cytotoxicity in COV434 cells, dose response, cytotoxicity control for PAX8 inhibitor project, cell-based, plate reader, dry powder, SA7 (AID 743145); format: functional
[9] = PAX2 cell-based inhibition, dose response, selectivity assay for PAX8 inhibitor project, plate reader, dry powder samples (AID 743048); format: functional;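 also: HEK293 cells carrying a WT1 promoter luciferase reporter driven by expressed Pax2; potency is for inhibition of Pax2 driven reporter signal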
[10] = PAX5 activity inhibitors, dose response, selectivity assay for PAX8 inhibitor project, cell-based, plate reader, dry powder samples (AID 743047); format: functional;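 also: HEK293 cells carrying a Pax5 driven CD19 promoter luciferase reporter; potency of inhibitors that lower reporter luminescence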
[11] = P. falciparum Dd2 growth inhibitors, dose response, SYBR Green, dry powder samples (AID 1159566); format: functional, cell-based;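 also: potency for growth inhibition with lower SYBR green DNA signal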
[12] = CTGF mRNA reduction under YAP1 overexpression, dose response, mechanism study for YAP1 pathway inhibitor project, DLD1 cells, RT-qPCR, cherry-pick (AID 1053127); format: functional, cell-based; settings: DLD-1
[13] = P. falciparum Dd2 growth inhibitors, dose response, SYBR Green, cherry-picked samples (AID 1159567); format: functional, cell-based
[14] = HepG2 cell cytotoxicity, dose response, cytotoxicity control, plate reader, dry powder samples (AID 1159569); format: functional, cell-based;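 also: inhibitor potency with signal falling toward the positive control level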
[15] = P. falciparum 3D7-ScDHODH growth inhibitors, dose response, SYBR Green, dry powder samples (AID 1159570); format: functional, cell-based;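 also: parasite growth measured after 72 hours of compound exposure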
[16] = P. falciparum ATP4 D1247Y mutant growth inhibitors, dose response, NITD609-resistant line, SYBR Green, dry powder (AID 1159571); format: functional, cell-based;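 also: parasites synchronized at ring stage by sorbitol before testing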
[17] = HepG2 cell cytotoxicity, dose response, cytotoxicity control, cherry-picked samples (AID 1159577); format: functional, cell-based
[18] = HEK293T cytotoxicity, dose response, cytotoxicity control for miR-122 modulator project, cell-based, activator set, cherry-pick (AID 720690); format: functional;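 also: HEK293T human cells scored for general mammalian cytotoxicity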
[19] = HepG2 cell cytotoxicity, dose response, cytotoxicity control, ATP luminescence, cherry-pick, set 6 (AID 1053125); format: functional, cell-based
CAAX prenyl protease 2 = molecular target: T3, CAAX prenyl protease 2 (Saccharomyces cerevisiae S288c, UniProt Q03530); format: biochemical
T3 sequence (Q03530 whole entry): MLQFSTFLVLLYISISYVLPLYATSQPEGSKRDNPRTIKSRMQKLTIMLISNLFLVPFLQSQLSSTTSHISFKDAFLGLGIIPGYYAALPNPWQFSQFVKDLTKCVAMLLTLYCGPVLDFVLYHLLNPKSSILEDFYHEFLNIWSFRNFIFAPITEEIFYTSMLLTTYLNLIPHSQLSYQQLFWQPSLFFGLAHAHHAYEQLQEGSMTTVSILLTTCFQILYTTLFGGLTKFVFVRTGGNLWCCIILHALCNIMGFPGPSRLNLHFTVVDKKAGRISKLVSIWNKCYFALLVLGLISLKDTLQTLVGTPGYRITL

[20] = microbe, parasite or virus in culture; format: functional; settings: Mycobacterium tuberculosis
[21] = M. tuberculosis growth inhibition, HTS (AID 449762); format: functional
Estrogen receptor = Estrogen receptor (Homo sapiens, UniProt P03372);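 also: potency for inhibiting coactivator peptide recruitment to the receptor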
Estrogen receptor beta [22] = molecular target: T4, Estrogen receptor beta (Homo sapiens, UniProt Q92731); assay: ERβ–SRC-3 coactivator interaction inhibitors, confirmation, orthogonal assay, biochemical, ELISA, streptavidin-HRP readout (AID 1060)
Estrogen receptor beta [23] = molecular target: T4, Estrogen receptor beta

T4 sequence (Q92731 whole entry): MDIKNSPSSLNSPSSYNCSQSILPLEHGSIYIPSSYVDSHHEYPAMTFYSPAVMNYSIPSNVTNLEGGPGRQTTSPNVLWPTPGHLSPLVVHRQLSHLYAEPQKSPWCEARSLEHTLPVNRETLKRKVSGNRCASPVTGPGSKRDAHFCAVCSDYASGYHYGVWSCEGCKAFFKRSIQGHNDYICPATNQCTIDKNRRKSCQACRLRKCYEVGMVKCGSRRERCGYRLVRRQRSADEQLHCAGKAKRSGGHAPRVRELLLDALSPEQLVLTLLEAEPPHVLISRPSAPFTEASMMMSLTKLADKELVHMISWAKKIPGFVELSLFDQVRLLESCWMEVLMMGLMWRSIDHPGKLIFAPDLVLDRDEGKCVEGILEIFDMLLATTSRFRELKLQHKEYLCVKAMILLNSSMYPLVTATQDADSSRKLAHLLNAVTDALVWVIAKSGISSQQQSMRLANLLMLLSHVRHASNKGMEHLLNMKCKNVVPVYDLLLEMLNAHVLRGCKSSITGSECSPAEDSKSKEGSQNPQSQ
Sequence of Disintegrin and metalloproteinase domain-containing protein 17 (P78536 whole entry, the tested form may be a part): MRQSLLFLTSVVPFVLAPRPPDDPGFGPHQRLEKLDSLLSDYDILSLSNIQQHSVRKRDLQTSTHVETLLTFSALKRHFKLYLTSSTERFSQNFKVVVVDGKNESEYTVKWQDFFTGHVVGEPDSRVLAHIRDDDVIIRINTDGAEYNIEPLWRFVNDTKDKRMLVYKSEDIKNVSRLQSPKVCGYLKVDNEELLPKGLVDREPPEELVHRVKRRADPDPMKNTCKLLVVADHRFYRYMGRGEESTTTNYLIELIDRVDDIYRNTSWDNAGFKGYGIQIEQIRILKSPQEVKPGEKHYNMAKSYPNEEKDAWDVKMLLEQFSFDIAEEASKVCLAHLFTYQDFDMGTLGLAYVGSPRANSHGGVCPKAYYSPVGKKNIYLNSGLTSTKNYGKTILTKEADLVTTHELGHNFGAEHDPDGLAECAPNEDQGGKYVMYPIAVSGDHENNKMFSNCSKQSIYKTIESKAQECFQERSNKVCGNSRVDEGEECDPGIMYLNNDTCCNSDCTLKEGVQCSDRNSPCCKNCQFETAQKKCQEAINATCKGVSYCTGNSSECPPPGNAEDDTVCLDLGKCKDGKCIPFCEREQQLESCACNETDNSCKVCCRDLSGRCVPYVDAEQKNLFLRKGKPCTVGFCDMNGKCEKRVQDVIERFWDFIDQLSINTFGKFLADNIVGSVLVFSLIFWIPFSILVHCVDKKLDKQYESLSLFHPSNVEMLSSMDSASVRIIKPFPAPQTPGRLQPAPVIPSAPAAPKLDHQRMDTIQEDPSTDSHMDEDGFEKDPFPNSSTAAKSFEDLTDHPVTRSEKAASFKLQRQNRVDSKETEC
Sequence of Paired box protein Pax-8 (Q06710 whole entry): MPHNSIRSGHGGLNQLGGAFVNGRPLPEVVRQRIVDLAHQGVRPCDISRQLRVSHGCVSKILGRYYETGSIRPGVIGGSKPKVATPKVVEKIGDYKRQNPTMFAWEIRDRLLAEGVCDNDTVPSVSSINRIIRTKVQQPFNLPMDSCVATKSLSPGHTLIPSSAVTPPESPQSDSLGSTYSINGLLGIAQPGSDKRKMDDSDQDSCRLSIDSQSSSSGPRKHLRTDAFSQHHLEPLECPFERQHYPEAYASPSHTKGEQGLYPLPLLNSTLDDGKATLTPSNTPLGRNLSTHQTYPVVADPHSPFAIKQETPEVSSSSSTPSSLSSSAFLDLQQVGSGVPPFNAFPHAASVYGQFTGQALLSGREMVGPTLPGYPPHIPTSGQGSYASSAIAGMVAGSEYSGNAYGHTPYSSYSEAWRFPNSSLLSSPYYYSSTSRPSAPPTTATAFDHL
Sequence of Estrogen receptor (P03372 whole entry): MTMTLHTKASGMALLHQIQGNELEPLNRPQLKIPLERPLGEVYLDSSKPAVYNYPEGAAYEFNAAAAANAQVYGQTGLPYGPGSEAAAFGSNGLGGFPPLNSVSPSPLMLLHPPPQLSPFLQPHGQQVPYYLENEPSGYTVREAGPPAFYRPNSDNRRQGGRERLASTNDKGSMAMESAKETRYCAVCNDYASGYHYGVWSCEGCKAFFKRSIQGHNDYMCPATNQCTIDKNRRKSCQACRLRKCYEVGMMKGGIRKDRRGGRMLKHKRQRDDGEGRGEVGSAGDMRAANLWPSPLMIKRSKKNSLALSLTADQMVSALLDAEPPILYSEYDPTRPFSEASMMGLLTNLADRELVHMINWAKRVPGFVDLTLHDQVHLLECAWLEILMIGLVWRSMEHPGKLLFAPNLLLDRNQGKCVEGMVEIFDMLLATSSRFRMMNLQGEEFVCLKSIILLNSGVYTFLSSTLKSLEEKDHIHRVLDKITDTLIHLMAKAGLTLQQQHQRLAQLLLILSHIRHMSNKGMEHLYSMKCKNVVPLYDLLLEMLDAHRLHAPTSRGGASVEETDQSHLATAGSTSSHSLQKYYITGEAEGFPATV

CC1=CN2C(=N)/C(=C/c3ccco3)C(=O)N=C2S1
EC50 [1]: 5.22 µM (active) | EC50 [2]: > 67.5 µM (inactive) | EC50 (H4): 1.63 µM (active) | EC50 [3]: 6.38 µM (active)

c1ccc(CNC2=Nc3ccccc3CS2)nc1
EC50 [2]: > 67.5 µM (inactive)

O=C(/C=C/Nc1ccc(F)c(Cl)c1)c1ccco1
EC50 (cells): > 67.5 µM (inactive) | IC50 (Protein skinhead-1): 25.2 µM (active) | EC50 [4]: > 67.5 µM (inactive)

COc1ccc(S(=O)(=O)Nc2ccc(Nc3ccccc3)cc2)cc1
IC50 [5]: > 69.5 µM (inactive) | IC50 [6]: 12 µM (inactive)

C[C@H](CO)N1C[C@H](C)[C@@H](CN(C)S(=O)(=O)c2ccc(Cl)cc2)OCCCC[C@H](C)Oc2ccc(NS(=O)(=O)c3ccccc3)cc2C1=O
AC50 [7]: 14 µM (active) | AC50 (Paired box protein Pax-8): 6.52 µM (active) | AC50 [8]: 27.6 µM (active) | AC50 [9]: 23.7 µM (active) | AC50 [10]: 26.3 µM (active)

C[C@@H]1CN([C@@H](C)CO)C(=O)c2ccccc2-c2ccccc2CO[C@H]1CN(C)C(=O)Nc1cccc(C(F)(F)F)c1
AC50 [11]: 1.03 µM (active) | AC50 [12]: 8.76 µM (active) | AC50 [13]: 1.55 µM (active) | AC50 [14]: > 100 µM (inactive) | AC50 [15]: 0.779 µM (active) | AC50 [16]: 2.38 µM (active)

CN(C)CC(=O)N1CCCCN2[C@@H](CO)[C@@H](c3ccc(/C=C/c4ccccc4)cc3)[C@@H]2C1
AC50 [17]: 8.82 µM (active) | AC50 [13]: 1.14 µM (active) | AC50 [18]: 23.6 µM (active)

CCOC(=O)c1cc2c(=O)n3cccc(C)c3nc2n(CC(C)C)/c1=N/C(=O)c1ccco1
AC50 [19]: > 52 µM (inactive) | AC50 (CAAX prenyl protease 2): 14 µM (active)

CCCCCCCC(=O)N/N=C(/C)c1c(O)cc(C)oc1=O
CC50 [20]: > 40 µM (active) | IC50 [21]: > 100 µM (active)

CC(=N)/C(C#N)=C(/O)CSc1nnc(-c2ccc(OC(F)F)cc2)o1
IC50 (Estrogen receptor): 46.6 µM (not active) | IC50 (Estrogen receptor beta [22]): 18.6 µM (not active) | IC50 (Estrogen receptor beta [23]): 9.26 µM (active)

Cc1ccc(/N=C/C2=C(O)C3(C)CCC2C3(C)C)cc1C (configuration not stated)
IC50 [21]: > 100 µM (active)
